Results taken from patent US10334829B2, “IMiD screening methods IMiD-sensitive cells with mutant CRBN” (THE BROAD INSTITUTE, INC., priority 2013, dated 2019).
“Also recorded” adds a separate entry of the source. Residues, ends and D or L forms follow the SMILES beside them. *: point of attachment. Cbz = O=C(OCc1ccccc1)*

Assays:
IKZF1 and IKZF3 [1] = assay: Immunoblot of IKZF1 and IKZF3 protein in multiple myeloma cells; assay type: cell-based, human
Experimental: The FK2 antibody detects covalently linked ubiquitin.
Protein lysates were run on Tris-HCl, 1 mm Criterion™ Precast gels (Bio-Rad) at a constant voltage. Proteins were transferred onto Imobilon-P transfer membranes (Millipore) at a constant amperage. Before staining, blots were blocked in 5% BSA in TBST for 30 minutes.

CSNK1A1 [2] = biological target: T1, CSNK1A1 (Homo sapiens, UniProt P48729+Q96SW2); assay: Immunoblot of CSNK1A1 (CK1α) protein in human cell lines; assay type: cell-based; settings: KG-1 cells, 6 hours
T1 construct: endogenous in cells; host or cells: KG-1
T1 sequence (P48729 whole entry): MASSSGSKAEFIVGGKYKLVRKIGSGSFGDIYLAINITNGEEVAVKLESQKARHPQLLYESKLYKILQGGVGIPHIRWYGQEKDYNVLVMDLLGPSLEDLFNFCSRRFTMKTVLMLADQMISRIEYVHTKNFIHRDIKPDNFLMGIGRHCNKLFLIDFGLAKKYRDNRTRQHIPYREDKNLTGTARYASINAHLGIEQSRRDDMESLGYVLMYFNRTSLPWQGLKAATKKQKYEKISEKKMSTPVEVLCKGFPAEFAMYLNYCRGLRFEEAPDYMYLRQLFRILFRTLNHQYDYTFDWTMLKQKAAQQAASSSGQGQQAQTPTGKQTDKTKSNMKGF
T1 sequence (Q96SW2 whole entry): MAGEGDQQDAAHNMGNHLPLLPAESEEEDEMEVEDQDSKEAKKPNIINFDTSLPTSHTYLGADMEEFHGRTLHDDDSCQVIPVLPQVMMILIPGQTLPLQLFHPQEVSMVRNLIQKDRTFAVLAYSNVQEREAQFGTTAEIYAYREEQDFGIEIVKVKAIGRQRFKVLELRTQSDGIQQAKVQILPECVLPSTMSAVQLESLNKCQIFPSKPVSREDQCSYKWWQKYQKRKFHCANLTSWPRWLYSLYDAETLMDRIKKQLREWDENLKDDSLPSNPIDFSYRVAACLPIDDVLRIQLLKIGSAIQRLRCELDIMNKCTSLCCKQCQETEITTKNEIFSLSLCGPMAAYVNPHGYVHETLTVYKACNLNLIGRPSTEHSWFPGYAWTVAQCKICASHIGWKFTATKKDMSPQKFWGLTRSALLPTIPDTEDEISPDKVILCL
T1 sequence (Q16531 whole entry partner): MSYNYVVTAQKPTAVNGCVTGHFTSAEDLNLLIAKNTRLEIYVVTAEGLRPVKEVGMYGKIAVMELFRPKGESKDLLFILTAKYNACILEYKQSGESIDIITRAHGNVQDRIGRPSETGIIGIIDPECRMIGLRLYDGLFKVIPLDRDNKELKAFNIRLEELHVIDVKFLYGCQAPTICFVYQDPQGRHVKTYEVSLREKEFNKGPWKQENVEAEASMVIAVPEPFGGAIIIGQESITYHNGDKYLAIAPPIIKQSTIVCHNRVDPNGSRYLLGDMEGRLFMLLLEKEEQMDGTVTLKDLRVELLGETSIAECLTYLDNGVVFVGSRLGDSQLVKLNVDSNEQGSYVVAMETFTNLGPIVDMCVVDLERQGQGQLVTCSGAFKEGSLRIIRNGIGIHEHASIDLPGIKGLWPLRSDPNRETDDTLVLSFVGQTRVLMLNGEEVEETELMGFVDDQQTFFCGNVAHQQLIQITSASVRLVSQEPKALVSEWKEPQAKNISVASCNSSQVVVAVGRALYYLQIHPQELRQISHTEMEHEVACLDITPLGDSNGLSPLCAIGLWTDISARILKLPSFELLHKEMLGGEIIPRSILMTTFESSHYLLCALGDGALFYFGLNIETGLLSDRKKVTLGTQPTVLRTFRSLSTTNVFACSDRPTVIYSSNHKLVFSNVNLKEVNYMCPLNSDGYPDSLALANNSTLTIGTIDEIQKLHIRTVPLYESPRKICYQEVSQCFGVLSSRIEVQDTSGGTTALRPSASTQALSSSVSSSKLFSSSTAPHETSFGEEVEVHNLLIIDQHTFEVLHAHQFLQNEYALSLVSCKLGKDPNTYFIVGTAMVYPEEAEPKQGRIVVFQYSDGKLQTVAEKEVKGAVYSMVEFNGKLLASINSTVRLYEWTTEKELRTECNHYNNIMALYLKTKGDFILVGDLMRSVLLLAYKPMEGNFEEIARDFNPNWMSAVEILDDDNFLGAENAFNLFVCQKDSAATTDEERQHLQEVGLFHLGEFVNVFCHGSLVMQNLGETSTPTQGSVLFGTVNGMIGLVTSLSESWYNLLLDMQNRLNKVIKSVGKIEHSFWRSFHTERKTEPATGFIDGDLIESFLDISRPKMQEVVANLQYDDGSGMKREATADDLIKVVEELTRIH
Experimental: Protein lysates were run on Tris-HCl, 1 mm Criterion™ Precast gels (Bio-Rad) or NuPAGE Bis-Tris gels (Novex) gels at a constant voltage. Proteins were transferred onto Immobilon-P transfer membranes (Millipore) at a constant amperage. Before staining with primary antibodies, blots were blocked in 5% non-fat dry milk (Santa Cruz) or BSA in TBST for 30 minutes.
Secondary antibodies were HRP conjugated Bovine anti-Goat (Jackson ImmunoResearch) and HRP conjugated donkey anti-rabbit (GE Healthcare). Supersignal chemi-luminescent substrate was used for detection. For re-probing, blots were stripped in Restore Western Blot Stripping Buffer (Thermo Scientific), activated in methanol, and re-blocked.

IKZF1 and IKZF3 [3] = assay: ORF-firefly luciferase reporter assay in 293T cells; assay type: cell-based, human; settings: 1 μM MLN-4924
IRF4 = IRF4 protein and mRNA levels in MM1S cells; assay type: cell-based, human
Excerpt: FIG. 14E is a graph showing IRF4 RNA expression levels after IKZF3 knockdown.

RAB28 = biological target: T2, RAB28 (Homo sapiens, UniProt P51157); assay: ORF-firefly luciferase reporter assay in 293T cells; assay type: cell-based; settings: 1 μM lenalidomide, 24 hours
T2 construct: expressed in transfected cells; host or cells: 293T
Experimental: The cDNAs of candidate genes, fused to firefly luciferase (FFluc), were expressed in 293T cells.
The luciferase reporter plasmid CMV-IRES-RenillaLUC-IRES-Gateway-FireflyLUC (11) was a kind gift from William G. Kaelin (Dana-Farber Cancer Institute). Cloning of cDNAs was performed using Gateway LR reaction (invitrogen). […] After an additional 24 hours, dual luciferase assays were performed using the Dual-Glo Luciferase Assay System (Promega) according to the manufacturer's protocol.

CBR1 = biological target: T3, CBR1 (Homo sapiens, UniProt P16152); assay: CBR1 biochemical assays
T3 sequence (P16152 1-277): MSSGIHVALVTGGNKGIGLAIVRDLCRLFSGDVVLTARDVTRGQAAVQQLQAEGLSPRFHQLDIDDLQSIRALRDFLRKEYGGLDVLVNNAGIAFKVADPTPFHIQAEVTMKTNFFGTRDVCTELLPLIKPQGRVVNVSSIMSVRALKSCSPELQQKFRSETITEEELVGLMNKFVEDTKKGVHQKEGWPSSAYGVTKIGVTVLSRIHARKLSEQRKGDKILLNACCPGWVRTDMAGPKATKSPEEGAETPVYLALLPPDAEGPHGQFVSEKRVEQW

CSNK1A1 [4] = assay: Immunoblot of CSNK1A1 in murine Baf3 and primary murine AML cells, with or without expressed CRBN variants; assay type: cell-based, mouse
Experimental: CSNK1A1 protein levels were assessed by immunoblot. […] Non-conserved amino acids are indicated by red bars.
Variants of human and mouse CRBN were cloned into a modified pRSF91 backbone to generate SFFV-CRBN-IRES-GFP-T2A-Puro retroviral constructs. 200,000 Ba/F3 cells were infected with ecotropic retrovirus in the presence of 2 μg/ml polybrene. After 24 hours, 1 μg/ml puromycin (Gibco) was added and cells were selected for 3-4 days. […] Protein lysates were harvested and immunoblotted for CK1α as described above.

CSNK1A1 [5] = assay: RQ-PCR of CSNK1A1 mRNA in human cells; assay type: cell-based
Experimental: Relative expression levels were calculated using the ΔΔCT method.

IKZF3 = assay: Immunoblot of IKZF3 in T cells isolated from mCRBN^I391V knock-in or wild type mice; assay type: cell-based, mouse; settings: 0, 1 or 10 μM
Excerpt: IKZF3 protein levels was detected by immunoblot (IB). Actin was included as a protein loading control.

MM1S cells = assay: CellTiter-Glo luminescent cell viability assay; assay type: cell-based, human; settings: MM1S (sensitive) versus K562 (insensitive) cells, 6 days
Experimental: FIGS. 2A, 2B-1, 2B-2 and 2C are provided. […] For a biological replicate SILAC labeling for the two conditions was switched.
On the respective days, total cellular ATP content was assessed using CellTiter-Glo® Luminescent Cell Viability Assay (Promega) according to the protocol. Luminescence was assessed by a multimode detector DTX880 (Beckman Coulter).

## NS(=O)(=O)OC[C@@H]1C[C@@H](n2ccc3c(N[C@H]4CCc5ccccc54)ncnc32)C[C@@H]1O [MLN-4924]
IKZF1 and IKZF3 [1]; MM cells, 1 μM MLN-4924
  Effect on lenalidomide-induced decrease of endogenous IKZF1 and IKZF3: prevented the lenalidomide-induced decrease
CSNK1A1 [2]
  Effect on lenalidomide-induced decrease in CSNK1A1 protein levels: abrogated
IKZF1 and IKZF3 [3]
  Effect on lenalidomide-induced decrease of FFluc-fused IKZF3: prevented the lenalidomide-induced decrease

## Nc1cccc2c1CN(C1CCC(=O)NC1=O)C2=O (stereo not drawn) [lenalidomide]
IRF4; 12 hours
  IRF4 levels in proteomic analysis: only slightly decreased
IRF4; 24 hours and longer
  IRF4 mRNA and protein: decreased expression of IRF4; also recorded: significant decrease of IRF4 mRNA and protein
RAB28
  Luciferase level of FFluc fused to RAB28: not altered
CBR1
  Inhibition of CBR1: did not interact with CBR1 in direct binding assays or inhibit CBR1
CSNK1A1 [4]
  CSNK1A1 degradation in Baf3 cells expressing mCRBN^I391V: conferred sensitivity to lenalidomide-induced degradation of CSNK1A1
  CSNK1A1 protein levels in murine cells over-expressing human CRBN: sufficient to confer lenalidomide sensitivity to CSNK1A1; also recorded: reduced CSNK1A1 levels; also recorded: resulted in a decrease of CSNK1A1 protein levels
CSNK1A1 [4]; unmodified cells, 24 hours
  CSNK1A1 protein levels in murine Baf3 cells or primary murine (MLL-AF9) leukemia cells: No change; also recorded: did not decrease Csnk1a1 protein levels
CSNK1A1 [5]
  CSNK1A1 mRNA / RNA expression: No significant change; also recorded: did not alter CSNK1A1 mRNA levels
IKZF1 and IKZF3 [1]
  Degradation of IKZF1 and IKZF3 with CRBN mutant that does not bind lenalidomide: abrogated degradation of IKZF1 and IKZF3
IKZF3
  IKZF3 degradation in T cells from wild type mice: No IKZF3 degradation was observed

## CCCCNC(=O)CCCNc1cccc2c1CN(C1CCC(=O)NC1=O)C2=O (stereo not drawn) [lenalidomide derivative, N-butyl-4-((2-(2,6-dioxopiperidin-3-yl)-1-oxoisoindolin-4-yl)amino)butanamide]
MM1S cells
  Biological activity / growth inhibition compared with lenalidomide: retained the biological activity of lenalidomide, including selective growth inhibition of multiple myeloma cells

## CC(C)C[C@@H](C=O)NC(=O)[C@H](CC(C)C)NC(=O)[C@H](CC(C)C)NC(=O)OCc1ccccc1 [MG132] (Cbz-Leu-Leu-Leu-aldehyde)
CSNK1A1 [2]
  Effect on lenalidomide-induced decrease in CSNK1A1 protein levels: abrogated
